# Measured values from patent publication US4511577A, “Derivatives of benzoic acid” (Media Research s.r.l., priority 1983, dated 1985).
# Key:
# [1] = system: carrageenin induced oedema in rat paw; experiment: carrageenin induced oedema in rat paw (antiinflammatory activity); assay type: in vivo; conditions: 75 mg/kg per os; for AREA Δ % (paw volume): control 243.3; for paw average volume, 30' / paw average volume, 1h / paw average volume, 2h / paw average volume, 3h / paw average volume, 6h / paw average volume, Basal: 5 animals
# Description: The antiinflammatory activity of MR-[…] in comparison with acetylsalicylic acid was determined by the test of carrageenin induced oedema in rat paw, according to the method of Winter, […], Ness. (Proc. Soc. Exp. Biol. Med., 111, 544-547, 1962). […] The paw volume was determined using an apparatus supplied by U. Basile Ltd.
# [2] = tail-flick test (analgesic activity); assay type: in vivo; conditions: 75 mg/kg os; for AREA Δ % (tail-flick): control 170.45
# Description: The analgesic activity was determined according to the tail-flick test, employing an apparatus supplied by Socrel Ltd., Milano, Italy.
# [3] = system: gastric mucosa; experiment: gastro-injuring action on the gastric mucosa; assay type: in vivo, Male Sprague-Dawley rats; conditions: oral, equimolecular doses, rats fasted 48 hours
# Description: The action on the gastric mucosa of MR-Y134 in comparison with equimolecular doses of ASA was determined according to the method described by Pisanti and Volterra (I1 Farmaco, vol. 25, (2), 105).
# The products were administered orally.
# Male Sprague-Dawley rats were used fastened for 48 hours with water ad libitum.
# The control group was administered with the solvent only (1% carboxymethylcellulose).
# [4] = plasmatic kinetics in rat after oral administration
# Description: The plasmatic kynetic of acetylsalicylic acid in rat was compared after oral administration of equimolecular doses of MR-Y134 and […] (466 mg/kg MR-Y134 and 300 mg/kg ASA respectively).
# The compounds were both administered in the form of 2% gum arabic suspension to rats fastened for 12 hours. Each animal was administered with 1.0 ml of solution.
# The rats were killed at the following times: 1, 2, 4, 8, 12 hours after the administration of the compounds.
# The blood sample was drawn in heparin.
SMILES,"% inhibition versus control (area, paw oedema) [1] [%]",AREA Δ % (paw volume) [1],"Percent variation of paw volume with respect to 0 time, 30' [1] [%]","paw average volume, 30' [1] [mL]","Percent variation of paw volume with respect to 0 time, 1h [1] [%]","paw average volume, 1h [1] [mL]","Percent variation of paw volume with respect to 0 time, 2h [1] [%]","paw average volume, 2h [1] [mL]","Percent variation of paw volume with respect to 0 time, 3h [1] [%]","paw average volume, 3h [1] [mL]","Percent variation of paw volume with respect to 0 time, 6h [1] [%]","paw average volume, 6h [1] [mL]","paw average volume, Basal [1] [mL]","% inhibition versus control (area, tail-flick) [2] [%]",AREA Δ % (tail-flick) [2],"Percent variation of reaction time with respect to 0 time, 1h [2] [%]","Reaction time, 1h [2] [s]","Percent variation of reaction time with respect to 0 time, 3h [2] [%]","Reaction time, 3h [2] [s]","Percent variation of reaction time with respect to 0 time, 6h [2] [%]",also measured
"CC(=O)Oc1ccccc1C(=O)O [ASA, acetylsalicylic acid]",53.41,113.35 Δ %,9.71,1.69,13.57,1.75,16.30,1.79,17.71,1.81,62.13,2.49,1.55,16.61,142.13 Δ %,23.01,7.16,26.66,6.82,27.31,"Reaction time, 6h [2]: 6.76 s; Reaction time, Basal [2]: 9.30 s"
"O=C(Oc1ccccc1C(=O)O)c1cccs1 [MR-Y134, 2-(2-thenoyloxy)-benzoic acid]",47.51,127.69 Δ %,8.03,1.71,14.96,1.82,14.18,1.8,20.46,1.9,76.48,2.79,1.58,50.18,84.91 Δ %,9.36,8.9,18.94,7.96,15.68,"antiinflammatory activity compared with ASA ([1]; equal amounts by weight): good antiinflammatory activity, substantially equal to the one of ASA; Reaction time, 6h [2]: 8.28 s; Reaction time, Basal [2]: 9.82 s; analgesic activity compared with ASA ([2]; equal amounts by weight): three times higher than the one of ASA; gastro-injuring activity compared with ASA [3]: scarce gastro-injuring activity, substantially lower than the one of ASA; height of plasma peak compared with sodium salicylate ([4]; rat, in vivo, po): substantially higher; persistence in the bloodstream ([4]; rat, in vivo, po): higher and more prolonged persistence in the bloodstream; time of plasma peak ([4]; rat, in vivo, po): third hour"
"O=C([O-])c1ccccc1O.[Na+] [SODIUM SALICYLATE, sodium salicylate]",,,,,,,,,,,,,,,,,,,,,"time of plasma peak ([4]; oral, equimolecular doses): second hour; concentration at 1 h ([4]; rat, in vivo, po, 300 mg/kg): 362 µg/mL; concentration at 2 h ([4]; rat, in vivo, po, 300 mg/kg): 534 µg/mL; concentration at 4 h ([4]; rat, in vivo, po, 300 mg/kg): 470 µg/mL; concentration at 8 h ([4]; rat, in vivo, po, 300 mg/kg): 456 µg/mL; concentration at 12 h ([4]; rat, in vivo, po, 300 mg/kg): 325 µg/mL"
